These results are taken from patent US20110190280A1, “Thiazole And Oxazole Kinase Inhibitors” (priority 2007, published 2011).

Assay [1] deals with SK-MEL-28 tumor cells. Description: Cell growth inhibition assay (CellTiter-Glo), SK-MEL-28.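 Further: luminescent total ATP as a proxy for cell number, threefold serial dilutions at 0.2% DMSO, percent growth inhibition versus DMSO vehicle control wells.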 The note with it: Homo sapiens, SK-MEL-28, 72 h, read-out: Activity in SK-MEL-28 Tumor Cells.
For assay [2], the system named is A375P tumor cells. Kind of assay: Cell growth inhibition assay (CellTiter-Glo), A375P.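 Further: total ATP luminescence used as proxy for cell number, serial threefold compound dilutions at 0.2% DMSO, growth inhibition expressed versus DMSO vehicle-treated wells.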 As to conditions: Homo sapiens, 72 h, read-out: Activity in A375P Tumor Cells. For orientation: In ATP-based viability assays light output follows the ATP content of the culture.
The target in assay [3] is B-Raf (Homo sapiens, UniProt P15056). Description: B-Raf Accelerated MEK ATPase assay (BRAMA). Format: biochemical. As to conditions: BRAMA enzyme assay; class by pIC50; read-out: B-Raf Activity. In a few lines:
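B-Raf activity read as intrinsic MEK ATPase: catalytic activated RAF with non-phosphorylated MEK drives ADP formation, coupled through pyruvate kinase and lactate dehydrogenase to NADH oxidation, independent of ERK phosphorylation.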

In assay [4] the test system is Colo205 tumor cells. Kind of assay: Cell growth inhibition assay (CellTiter-Glo), Colo205.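 Further: growth measured via total ATP luminescence (CellTiter-Glo) as a proxy for cell number, inhibition expressed against DMSO-treated control wells, 3-day exposure at 0.2% final DMSO.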 The note with it: Homo sapiens, COLO 205, 72 h, read-out: Activity in Colo205 Tumor Cells.
Method: (§1) Cell Growth Inhibition Assays Human colon tumor cells (Colo205) were cultured in RPMI (Mediatech 50-020-PB) containing 10% FBS and 1% penicillin-streptomycin. […] Human melanoma cancer cells (A375-F11S) were cultured in RPMI (Mediatech 50-020-PB) containing 10% FBS, 1% sodium pyruvate, and 1% penicillin-streptomycin. Human colon cancer cells (HT-29) were cultured in high glucose DMEM (Mediatech 50-013-PB) containing 10% FBS and 1% penicillin-streptomycin. Human melanoma cancer cells (SK-MEL-3) were cultured in McCoy's 5A (50-025-PB) containing 15% FBS, and 1% penicillin-streptomycin. All cell lines were maintained at 37° C. in a humidified 5% CO2, 95% air incubator.
(§2) The next day, compounds were diluted as follows: For 96-well assays, 13.5 μl of compound in DMSO were diluted using nine (9) serial 1:3 dilutions of 4.5 μl in 9 μl of DMSO. Medium (270 μl/well of RPMI with 10% FBS and 1% penicillin-streptomycin) was added to the plates. Aliquots (7 μl) were added to cells in the final assay giving a final DMSO concentration of 0.2%. For 384-well assays, 15 μl of compound in DMSO were diluted using nine (9) serial 1:3 dilutions of 5 μl in 10 μl of DMSO, followed by a further dilution of 5 μl of compound with 95 μl of medium, of which 2 μl are added to cells in the final assay giving a final DMSO concentration of 0.2%. Cells were incubated at 37° C., 5% CO2 for 3 days.
(§3) Total ATP was measured (as a surrogate estimate of cell number) using CellTiter-Glo® (Promega G7571) reagent. Briefly, plates were removed from the incubator and allowed to equilibrate to room temperature for 30 minutes. CellTiter-Glo® (25 μl or 55 μl for 384-well or 96-well assays, respectively) reagent was added to each well and plates were shaken on an orbital plate shaker for 2 minutes. Plates were incubated without shaking for a further 30 minutes and read on an LJL Analyst GT reader in luminometer mode with an integration time of 0.5 seconds per well. Percent inhibition of cell growth was calculated relative to DMSO vehicle-treated control wells.
In assay [5] the test system is HT-29 tumor cells. Description: Cell growth inhibition assay (CellTiter-Glo), HT-29.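 Further: ATP content read by luminescence as proxy for cell number, growth inhibition versus DMSO vehicle wells, 0.2% DMSO final, nine serial threefold compound dilutions.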 As to conditions: Homo sapiens, HT-29, 72 h, read-out: Activity in HT-29 Tumor Cells.
Assay [6] addresses EGFR (Homo sapiens, UniProt P00533). Description: EGFR kinase autophosphorylation assay (peptide phosphorylation, HTRF). It counts as biochemical. As to conditions: 0.8 nM EGFR, class by pIC50. On the technique in general: TR-FRET usually uses a lanthanide donor and a delayed reading to cut background.
The subject of assay [7] is SK-MEL-3 tumor cells. Kind of assay: Cell growth inhibition assay (CellTiter-Glo), SK-MEL-3.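 Further: human melanoma cells grown with compound for 3 days in 0.2% DMSO, total ATP read by luminescence as proxy for cell number, growth inhibition versus DMSO-treated wells.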 The note with it: Homo sapiens, SK-MEL3, 72 h, read-out: Activity in SK-MEL-3 Tumor Cells.
Method: as §1, §2, §3
Assay [8] concerns the target ErbB2 (Homo sapiens, UniProt P04626). Description: ErbB2 kinase autophosphorylation assay (peptide phosphorylation, HTRF). It counts as biochemical. The note with it: 10 nM ErbB2, HTRF; class by pIC50.

Chain of B-Raf (P15056 whole entry): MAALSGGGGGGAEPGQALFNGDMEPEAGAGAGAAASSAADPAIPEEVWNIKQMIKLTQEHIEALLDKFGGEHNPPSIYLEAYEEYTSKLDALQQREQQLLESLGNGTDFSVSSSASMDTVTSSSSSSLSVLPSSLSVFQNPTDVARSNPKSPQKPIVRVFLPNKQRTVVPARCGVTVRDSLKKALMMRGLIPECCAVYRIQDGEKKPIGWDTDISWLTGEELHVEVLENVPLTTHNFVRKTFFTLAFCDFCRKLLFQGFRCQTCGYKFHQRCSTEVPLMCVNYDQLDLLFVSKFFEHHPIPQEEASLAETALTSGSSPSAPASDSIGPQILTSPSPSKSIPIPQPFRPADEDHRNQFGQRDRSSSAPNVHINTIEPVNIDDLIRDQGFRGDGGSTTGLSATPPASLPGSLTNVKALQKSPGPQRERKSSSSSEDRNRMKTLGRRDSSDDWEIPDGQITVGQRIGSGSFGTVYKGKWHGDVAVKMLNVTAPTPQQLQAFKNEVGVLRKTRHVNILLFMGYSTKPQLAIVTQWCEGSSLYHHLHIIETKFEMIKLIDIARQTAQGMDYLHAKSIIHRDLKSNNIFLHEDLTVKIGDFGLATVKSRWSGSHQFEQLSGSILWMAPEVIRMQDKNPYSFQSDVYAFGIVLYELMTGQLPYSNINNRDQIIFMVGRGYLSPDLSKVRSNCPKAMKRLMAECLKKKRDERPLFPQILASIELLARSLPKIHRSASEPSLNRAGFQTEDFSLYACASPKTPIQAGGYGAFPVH
Chain of EGFR (P00533 25-1210): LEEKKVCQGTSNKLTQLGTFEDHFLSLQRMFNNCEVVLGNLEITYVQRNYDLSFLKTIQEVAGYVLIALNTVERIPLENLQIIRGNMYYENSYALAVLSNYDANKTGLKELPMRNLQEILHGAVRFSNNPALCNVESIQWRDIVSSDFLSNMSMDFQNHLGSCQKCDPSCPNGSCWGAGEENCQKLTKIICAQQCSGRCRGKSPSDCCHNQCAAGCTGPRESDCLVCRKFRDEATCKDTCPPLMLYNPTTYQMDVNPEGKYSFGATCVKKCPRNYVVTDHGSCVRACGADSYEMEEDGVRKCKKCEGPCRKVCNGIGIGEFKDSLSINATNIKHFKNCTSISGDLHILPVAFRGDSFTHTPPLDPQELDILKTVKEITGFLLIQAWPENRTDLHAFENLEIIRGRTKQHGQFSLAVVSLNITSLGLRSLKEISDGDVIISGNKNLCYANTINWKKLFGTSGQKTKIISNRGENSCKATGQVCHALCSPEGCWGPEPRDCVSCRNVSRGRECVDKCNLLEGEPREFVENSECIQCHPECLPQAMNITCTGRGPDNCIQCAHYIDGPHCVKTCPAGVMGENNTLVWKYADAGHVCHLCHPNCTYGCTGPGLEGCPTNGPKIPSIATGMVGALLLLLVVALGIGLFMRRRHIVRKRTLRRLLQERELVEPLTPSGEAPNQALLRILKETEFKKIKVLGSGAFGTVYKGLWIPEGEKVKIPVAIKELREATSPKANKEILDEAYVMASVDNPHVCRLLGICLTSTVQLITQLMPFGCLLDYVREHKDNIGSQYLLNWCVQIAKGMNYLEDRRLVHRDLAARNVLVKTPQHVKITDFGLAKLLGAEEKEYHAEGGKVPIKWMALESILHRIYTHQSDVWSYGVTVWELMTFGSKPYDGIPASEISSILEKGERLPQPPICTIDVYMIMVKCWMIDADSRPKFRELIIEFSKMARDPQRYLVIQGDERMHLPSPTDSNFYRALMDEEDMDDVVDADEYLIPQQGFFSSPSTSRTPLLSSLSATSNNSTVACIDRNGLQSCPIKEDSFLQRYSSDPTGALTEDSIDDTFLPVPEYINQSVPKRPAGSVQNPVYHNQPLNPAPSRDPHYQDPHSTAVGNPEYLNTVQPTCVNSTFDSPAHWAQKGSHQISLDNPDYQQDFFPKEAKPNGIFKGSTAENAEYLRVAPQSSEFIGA
Chain of ErbB2 (P04626 23-1255): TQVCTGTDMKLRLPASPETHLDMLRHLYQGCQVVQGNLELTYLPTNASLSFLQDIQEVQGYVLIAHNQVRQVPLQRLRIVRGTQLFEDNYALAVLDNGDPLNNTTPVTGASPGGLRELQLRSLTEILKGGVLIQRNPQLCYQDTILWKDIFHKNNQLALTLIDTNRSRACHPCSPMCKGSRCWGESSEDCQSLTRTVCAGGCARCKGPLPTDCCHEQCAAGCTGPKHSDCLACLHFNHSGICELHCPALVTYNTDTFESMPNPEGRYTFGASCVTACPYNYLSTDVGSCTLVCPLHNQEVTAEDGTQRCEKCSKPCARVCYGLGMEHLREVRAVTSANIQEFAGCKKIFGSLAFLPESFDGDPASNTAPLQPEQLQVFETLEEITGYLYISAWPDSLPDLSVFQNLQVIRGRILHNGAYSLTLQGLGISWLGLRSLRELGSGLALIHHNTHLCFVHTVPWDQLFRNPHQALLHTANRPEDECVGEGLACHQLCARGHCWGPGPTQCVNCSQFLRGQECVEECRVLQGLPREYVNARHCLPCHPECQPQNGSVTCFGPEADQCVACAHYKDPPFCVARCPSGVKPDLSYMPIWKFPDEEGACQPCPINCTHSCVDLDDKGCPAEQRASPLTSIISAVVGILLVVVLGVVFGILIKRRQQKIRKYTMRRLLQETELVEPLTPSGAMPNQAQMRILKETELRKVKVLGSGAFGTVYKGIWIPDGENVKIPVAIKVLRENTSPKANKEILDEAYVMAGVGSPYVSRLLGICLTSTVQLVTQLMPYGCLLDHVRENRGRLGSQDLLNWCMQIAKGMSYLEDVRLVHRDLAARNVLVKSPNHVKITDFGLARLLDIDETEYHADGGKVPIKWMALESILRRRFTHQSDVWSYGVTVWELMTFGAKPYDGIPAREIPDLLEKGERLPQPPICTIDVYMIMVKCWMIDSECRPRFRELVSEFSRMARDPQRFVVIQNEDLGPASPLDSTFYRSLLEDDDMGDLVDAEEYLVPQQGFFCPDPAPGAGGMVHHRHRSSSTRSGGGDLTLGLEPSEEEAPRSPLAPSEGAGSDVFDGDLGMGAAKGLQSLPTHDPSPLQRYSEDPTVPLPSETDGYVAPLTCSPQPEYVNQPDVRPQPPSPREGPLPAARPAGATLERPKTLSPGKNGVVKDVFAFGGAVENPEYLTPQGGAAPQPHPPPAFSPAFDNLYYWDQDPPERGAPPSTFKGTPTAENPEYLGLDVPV

Turning to `CCNc1nc(-c2cc(C)cc(OC)c2)c(-c2ccnc(Nc3ccc4c(c3)CCN4C(C)=O)n2)s1` [Example 30, 1-Acetyl-N-(4-{2-(ethylamino)-4-[3-methyl-5-(methyloxy)phenyl]-1,3-thiazol-5-yl}-2-pyrimidinyl)-2,3-dihydro-1H-indol-5-amine], the IC50 is less than 500 nM in assay [1]; less than 500 nM in assay [2]; less than 100 nM in assay [3]; less than 500 nM in assay [4]; less than 500 nM in assay [5]; greater than 1000 nM in assay [6]. Moreover, the IC50 was less than 500 nM in assay [7] and greater than 1000 nM in assay [8].
As for `CCNc1nc(-c2cc(C)cc(OC)c2)c(-c2ccnc(Nc3ccc(N4CCS(=O)(=O)CC4)nc3)n2)s1` [Example 34, N-[6-(1,1-Dioxido-4-thiomorpholinyl)-3-pyridinyl]-4-{2-(ethylamino)-4-[3-methyl-5-(methyloxy)phenyl]-1,3-thiazol-5-yl}-2-pyrimidinamine], the IC50 was less than 500 nM in assay [1]; less than 500 nM in assay [2]; less than 100 nM in assay [3]; less than 500 nM in assay [4]; less than 500 nM in assay [5]; greater than 1000 nM in assay [6]. Moreover, the IC50 in assay [7] was less than 500 nM; in assay [8], greater than 1000 nM.
Regarding `CCNc1nc(-c2cc(C)cc(OC)c2)c(-c2ccnc(Nc3ccc(N4CCN(CCS(C)(=O)=O)CC4)c(F)c3)n2)s1` [Example 27, 4-{2-(Ethylamino)-4-[3-methyl-5-(methyloxy)phenyl]-1,3-thiazol-5-yl}-N-(3-fluoro-4-{4-[2-(methylsulfonyl)ethyl]-1-piperazinyl}phenyl)-2-pyrimidinamine], the IC50 in assay [1] was less than 500 nM; in assay [2] it was less than 500 nM; in assay [3], less than 100 nM; in assay [4] it was less than 500 nM; in assay [5], less than 500 nM; in assay [6], greater than 1000 nM. Moreover, the IC50 in assay [7] is less than 500 nM; in assay [8], greater than 1000 nM.
For the molecule `CCNc1nc(-c2cc(OC)cc(OC)c2)c(-c2ccnc(Nc3ccc(N4CCOCC4)c(F)c3)n2)o1` [Example 118], the IC50 in assay [1] is 500 to 5000 nM; in assay [2], 500 to 5000 nM; in assay [3], less than 100 nM; in assay [4] it was 500 to 5000 nM; in assay [5] it was 500 to 5000 nM; in assay [6], greater than 1000 nM. In addition, the IC50 in assay [7] was 500 to 5000 nM; in assay [8] it was greater than 1000 nM.
Turning to `CCNc1nc(-c2cc(OC)cc(OC)c2)c(-c2ccnc(Nc3ccc(OC4CCN(CCS(C)(=O)=O)CC4)c(F)c3)n2)s1` [Example 10, 4-[4-[3,5-Bis(methyloxy)phenyl]-2-(ethylamino)-1,3-thiazol-5-yl]-N-[3-fluoro-4-({1-[2-(methylsulfonyl)ethyl]-4-piperidinyl}oxy)phenyl]-2-pyrimidinamine], the IC50 was less than 500 nM in assay [1]; less than 500 nM in assay [2]; less than 100 nM in assay [3]; less than 500 nM in assay [4]; less than 500 nM in assay [5]; greater than 1000 nM in assay [6]. In addition, the figures for the IC50 in assay [7] and in assay [8] were less than 500 nM and greater than 1000 nM, respectively.
